Test results reported in the NIST ThermoML archive (doi:10.1016/j.fluid.2011.01.013).

Experiment: xn = mol fraction of the nth substance listed
Details: Gas, Oscillating disk viscometry

CCN(CC)CC [triethylamine] + CO
Details | viscosity [mPa·s]
296.97 K, Mass density=2.1808 kg/m3, x2 = 0.4998 | 0.007913
297.25 K, Mass density=0.6964 kg/m3, x2 = 0.4996 | 0.007853
298.22 K, Mass density=1.2804 kg/m3, x2 = 0.3322 | 0.007476
298.82 K, Mass density=0.6964 kg/m3, x2 = 0.4996 | 0.007887
298.92 K, Mass density=1.1039 kg/m3, x2 = 0.4982 | 0.007914
299.02 K, Mass density=0.6482 kg/m3, x2 = 0.4999 | 0.007865
310.39 K, Mass density=0.6964 kg/m3, x2 = 0.4996 | 0.008055
310.51 K, Mass density=2.1808 kg/m3, x2 = 0.4998 | 0.008259
310.56 K, Mass density=0.6482 kg/m3, x2 = 0.4999 | 0.008025
310.62 K, Mass density=1.1039 kg/m3, x2 = 0.4982 | 0.008147
310.75 K, Mass density=1.5253 kg/m3, x2 = 0.5035 | 0.008235
311.73 K, Mass density=1.2804 kg/m3, x2 = 0.3322 | 0.007712
324.1 K, Mass density=2.1808 kg/m3, x2 = 0.4998 | 0.008539
324.27 K, Mass density=1.2804 kg/m3, x2 = 0.3322 | 0.007852
324.64 K, Mass density=0.6964 kg/m3, x2 = 0.4996 | 0.008338
325.29 K, Mass density=1.1039 kg/m3, x2 = 0.4982 | 0.008337
325.44 K, Mass density=0.6482 kg/m3, x2 = 0.4999 | 0.008367
326.59 K, Mass density=1.5253 kg/m3, x2 = 0.5035 | 0.008476
337.6 K, Mass density=1.2804 kg/m3, x2 = 0.3322 | 0.008072
338.04 K, Mass density=1.5253 kg/m3, x2 = 0.5035 | 0.008626
338.18 K, Mass density=0.6482 kg/m3, x2 = 0.4999 | 0.008693
338.18 K, Mass density=1.1039 kg/m3, x2 = 0.4982 | 0.008632
338.37 K, Mass density=0.6964 kg/m3, x2 = 0.4996 | 0.008695
338.58 K, Mass density=2.1808 kg/m3, x2 = 0.4998 | 0.00869
352.3 K, Mass density=0.6964 kg/m3, x2 = 0.4996 | 0.009039
352.47 K, Mass density=0.6482 kg/m3, x2 = 0.4999 | 0.009053
352.57 K, Mass density=1.1039 kg/m3, x2 = 0.4982 | 0.009009
352.83 K, Mass density=2.1808 kg/m3, x2 = 0.4998 | 0.008949
352.91 K, Mass density=1.2804 kg/m3, x2 = 0.3322 | 0.008441
353.02 K, Mass density=1.5253 kg/m3, x2 = 0.5035 | 0.009026
365.7 K, Mass density=2.1808 kg/m3, x2 = 0.4998 | 0.009281
365.96 K, Mass density=1.5253 kg/m3, x2 = 0.5035 | 0.009349
366.02 K, Mass density=1.2804 kg/m3, x2 = 0.3322 | 0.008766
366.12 K, Mass density=1.5253 kg/m3, x2 = 0.5035 | 0.009363
366.13 K, Mass density=0.6482 kg/m3, x2 = 0.4999 | 0.009411
366.22 K, Mass density=1.2804 kg/m3, x2 = 0.3322 | 0.008747
366.24 K, Mass density=0.6964 kg/m3, x2 = 0.4996 | 0.009388
366.29 K, Mass density=1.1039 kg/m3, x2 = 0.4982 | 0.009353
366.41 K, Mass density=2.1808 kg/m3, x2 = 0.4998 | 0.009307
366.96 K, Mass density=0.6482 kg/m3, x2 = 0.4999 | 0.009415
367.89 K, Mass density=1.1039 kg/m3, x2 = 0.4982 | 0.009381
379.75 K, Mass density=1.2804 kg/m3, x2 = 0.3322 | 0.009075
380.83 K, Mass density=2.1808 kg/m3, x2 = 0.4998 | 0.009681
381.57 K, Mass density=0.6482 kg/m3, x2 = 0.4999 | 0.009793
381.81 K, Mass density=1.5253 kg/m3, x2 = 0.5035 | 0.00977
381.91 K, Mass density=1.1039 kg/m3, x2 = 0.4982 | 0.009758
383.76 K, Mass density=0.6964 kg/m3, x2 = 0.4996 | 0.009828
394.29 K, Mass density=2.1808 kg/m3, x2 = 0.4998 | 0.01004
394.84 K, Mass density=1.5253 kg/m3, x2 = 0.5035 | 0.01009
394.95 K, Mass density=0.6964 kg/m3, x2 = 0.4996 | 0.0101
394.98 K, Mass density=1.2804 kg/m3, x2 = 0.3322 | 0.009437
395.04 K, Mass density=0.6482 kg/m3, x2 = 0.4999 | 0.01012
395.34 K, Mass density=1.1039 kg/m3, x2 = 0.4982 | 0.01008
408.74 K, Mass density=1.2804 kg/m3, x2 = 0.3322 | 0.009753
409.01 K, Mass density=1.1039 kg/m3, x2 = 0.4982 | 0.01044
409.18 K, Mass density=2.1808 kg/m3, x2 = 0.4998 | 0.01042
409.61 K, Mass density=0.6482 kg/m3, x2 = 0.4999 | 0.0105
410.61 K, Mass density=1.5253 kg/m3, x2 = 0.5035 | 0.0105
410.75 K, Mass density=0.6964 kg/m3, x2 = 0.4996 | 0.01052
422.83 K, Mass density=1.2804 kg/m3, x2 = 0.3322 | 0.01008
423.21 K, Mass density=1.5253 kg/m3, x2 = 0.5035 | 0.01081
423.31 K, Mass density=0.6964 kg/m3, x2 = 0.4996 | 0.01083
423.64 K, Mass density=2.1808 kg/m3, x2 = 0.4998 | 0.01078
423.81 K, Mass density=1.1039 kg/m3, x2 = 0.4982 | 0.01081
425.55 K, Mass density=0.6482 kg/m3, x2 = 0.4999 | 0.01091
436.79 K, Mass density=1.5253 kg/m3, x2 = 0.5035 | 0.01116
436.89 K, Mass density=2.1808 kg/m3, x2 = 0.4998 | 0.01111
436.91 K, Mass density=0.6964 kg/m3, x2 = 0.4996 | 0.01117
437.47 K, Mass density=1.1039 kg/m3, x2 = 0.4982 | 0.01116
438.27 K, Mass density=0.6482 kg/m3, x2 = 0.4999 | 0.01122
441.21 K, Mass density=1.2804 kg/m3, x2 = 0.3322 | 0.01053
451.54 K, Mass density=1.2804 kg/m3, x2 = 0.3322 | 0.01076
451.6 K, Mass density=1.5253 kg/m3, x2 = 0.5035 | 0.01154
451.74 K, Mass density=1.1039 kg/m3, x2 = 0.4982 | 0.01151
452.02 K, Mass density=2.1808 kg/m3, x2 = 0.4998 | 0.01151
452.69 K, Mass density=0.6964 kg/m3, x2 = 0.4996 | 0.01157
453.25 K, Mass density=0.6482 kg/m3, x2 = 0.4999 | 0.01161
466.65 K, Mass density=2.1808 kg/m3, x2 = 0.4998 | 0.01188
466.76 K, Mass density=1.5253 kg/m3, x2 = 0.5035 | 0.01191
467.26 K, Mass density=1.1039 kg/m3, x2 = 0.4982 | 0.0119
467.4 K, Mass density=1.2804 kg/m3, x2 = 0.3322 | 0.01113
467.62 K, Mass density=0.6482 kg/m3, x2 = 0.4999 | 0.01197
480.98 K, Mass density=1.2804 kg/m3, x2 = 0.3322 | 0.01145
481.28 K, Mass density=1.1039 kg/m3, x2 = 0.4982 | 0.01225
481.51 K, Mass density=2.1808 kg/m3, x2 = 0.4998 | 0.01224
481.53 K, Mass density=0.6964 kg/m3, x2 = 0.4996 | 0.01229
482.14 K, Mass density=0.6482 kg/m3, x2 = 0.4999 | 0.01231
482.73 K, Mass density=1.5253 kg/m3, x2 = 0.5035 | 0.01229
494.94 K, Mass density=0.6964 kg/m3, x2 = 0.4996 | 0.01263
495.26 K, Mass density=1.2804 kg/m3, x2 = 0.3322 | 0.01179
495.28 K, Mass density=2.1808 kg/m3, x2 = 0.4998 | 0.0126
495.78 K, Mass density=1.5253 kg/m3, x2 = 0.5035 | 0.01264
496.37 K, Mass density=0.6482 kg/m3, x2 = 0.4999 | 0.01269
497.66 K, Mass density=1.1039 kg/m3, x2 = 0.4982 | 0.01267
